Reference: patent publication US10073084B2, “Predicting allergic reactions” (priority 2010, dated 2018)
Entries after “also recorded” stand apart in the source; their conditions may differ. Where two headings read alike, the source gives them in different places. One block for each molecule: values may come before it.

Key:
IFN-γ = IFN-γ levels in supernatant of drug treated FastDC co-cultured with autologous cells (FACs); assay type: cell-based, human; details: for levels of IFN-γ (in words): FIG. 9
[1] = system: skin biopsy from the same donor; assay: Skin explant assay: histological damage grade, compound-treated DC + autologous T cells + autologous skin; details: for Grade I (number of skin explants with this histological grade): Grade I = negative; for Total positive: positive (Grade II-IV) explants / explants tested; for Skin Explant Result (grade observed): Table 3
[2] = from publicly available www.sens-it-iv website; cited from earlier work
[3] = system: skin biopsy from the same donor
autologous T cells [4] = assay: Modified T cell proliferation assay ([3H] thymidine), drug treated FastDC + autologous T cells; assay type: cell-based, human
[5] = system: chemokine (C-C motif) receptor 2 (CCR2); assay: Real-time RT-PCR gene expression in treated dendritic cells: CCR2; assay type: cell-based, human; details: 3, 6, 11 and 24 h, single donor, FIG. 6
CD86, CD83 and HLA-DR = assay: Flow cytometric analysis of surface markers on treated monocyte-derived dendritic cells; assay type: cell-based, human; details: after 24 hours of treatment, non-sensitizers compared with control cells
autologous T cells [6] = assay: T cell proliferation assay ([3H]-Thymidine), treated DC with autologous T cells (Example 3); assay type: cell-based, human
allogeneic T cells = assay: T cell proliferation assay ([3H]-Thymidine), treated DC with allogeneic T cells (Example 3); assay type: cell-based, human; details: FIG. 7C
[7] = system: cAMP-responsive element modulator (CREM); assay: Real-time RT-PCR gene expression in treated dendritic cells: CREM; assay type: cell-based, human; details: 3, 6, 11 and 24 h, single donor, FIG. 6
[8] = Table 2, concentrations of Table 1
[9] = Table 2, concentrations of Table 1, positive grade
[10] = FIG. 8 / FIG. 10, FastDC treated 24 hours, five days co-culture

Molecule: Sc1nc2ccccc2s1 [2Mercp, 2-mercaptobenzothiazole]
IFNγ Mean (IFN-γ; Table 3): 628.81 | Grade I (number of skin explants with this histological grade) [1, 8]: 1 | Grade II (number of skin explants with this histological grade) [1, 9]: 1 | Grade III (number of skin explants with this histological grade) [1, 9]: 2 | Total positive ([1]; Table 2): 3/4 | LLNA Class [2]: Moderate

Grade IV (number of skin explants with this histological grade) [3]: 1 | Total positive [3]: 4/5
Molecule: CC1(C)S[C@@H]2[C@H](NC(=O)[C@H](N)c3ccc(O)cc3)C(=O)N2[C@H]1C(=O)O [Amoxo, Amoxicillin]

Molecule: CCOC(=O)c1ccc(N)cc1 [Bz, Benzocaine]
Total positive ([1]; Table 2): 1/1

Molecule: O=CC=Cc1ccccc1 [CINN, Cinnamaldehyde]
IFNγ Mean (IFN-γ; Table 3): 227.76 | Grade I (number of skin explants with this histological grade) ([3]; human, 3 days): 2 | Total positive ([3]; human, 3 days): 2/4

Molecule: C[S+](C)[O-] [DMSO, Dimethyl sulfoxide]
autologous T cell proliferation (level in words) (autologous T cells [4]; [10]): low | Grade I (number of skin explants with this histological grade) [1, 8]: 2 | Grade II (number of skin explants with this histological grade) [1, 9]: 1 | Total positive ([1]; Table 2): 1/3 | Skin Explant Result (grade observed) [1]: Grade I; also recorded: Grade II

Molecule: CN(C)C=O [DMT, Dimethyl formamide]
IFNγ Mean (IFN-γ; Table 3): 158.59 | autologous T cell proliferation (level in words) (autologous T cells [4]; [10]): low | Grade I (number of skin explants with this histological grade) [1, 8]: 3 | Total positive ([1]; Table 2): 0/3 | Skin Explant Result (grade observed) [1]: Grade I

Grade IV (number of skin explants with this histological grade) ([3]; human, 3 days): 1 | Total positive ([3]; human, 3 days): 5/5
Molecule: C=CCc1ccc(O)c(OC)c1 [Eugenol]
IFNγ Mean (IFN-γ; Table 3): 425.66 | CCR2 expression, logarithmic fold change (LFC) [5]: down-regulated from 3-11 hours and then is up-regulated at 24 hours | expression of the markers CD86, CD83 and HLA-DR (CD86, CD83 and HLA-DR): reduced peak of expression | T cell proliferation response versus SDS-treated DC (autologous T cells [6]; summary statement, T cell source not stated, not reproducible): Two-fold | [3H]-Thymidine count relative to SDS and Triton X-100 (autologous T cells [6]; treated DC with autologous T cells, FIG. 7B): two-fold | difference in counts per minute (CPM) versus SDS (allogeneic T cells): greater than two-fold | CREM expression, logarithmic fold change (LFC) [7]: up-regulated until 24 hours when it becomes down-regulated

Molecule: OCC(O)CO [Gly, Glycerol]
IFNγ Mean (IFN-γ; Table 3): 144.28 | autologous T cell proliferation (level in words) (autologous T cells [4]; [10]): low | Total positive ([1]; Table 2): 1/4

Molecule: CC(C)O [IP, Isopropanol]
IFNγ Mean (IFN-γ; Table 3): 207.26 | autologous T cell proliferation (level in words) (autologous T cells [4]; [10]): low | Total positive ([1]; Table 2): 0/5

Molecule: Nc1nnc(-c2cccc(Cl)c2Cl)c(N)n1 [L amot, Lamotrigine]
Grade II (number of skin explants with this histological grade) [1, 9]: 1 | Grade III (number of skin explants with this histological grade) [1, 9]: 2 | Grade IV (number of skin explants with this histological grade) [1, 9]: 1 | Total positive ([1]; Table 2): 4/4

Molecule: N[C@@H](CCC(=O)O)C(=O)O [LGA, Glutamic Acid]
IFNγ Mean (IFN-γ; Table 3): 48.40 | autologous T cell proliferation (level in words) (autologous T cells [4]; [10]): low | Grade I (number of skin explants with this histological grade) [1, 8]: 2 | Grade II (number of skin explants with this histological grade) [1, 9]: 1 | Total positive ([1]; Table 2): 1/3 | Skin Explant Result (grade observed) ([1]; listed as LGA (glutamic Acid)): Grade I; also recorded: Grade II

Molecule: CN(Cc1cnc2nc(N)nc(N)c2n1)c1ccc(C(=O)N[C@@H](CCC(=O)O)C(=O)O)cc1 [MTX, Methotrexate]
levels of IFN-γ (in words) (IFN-γ): low | autologous T cell proliferation (level in words) (autologous T cells [4]; [10]): low | Grade I (number of skin explants with this histological grade) [1, 8]: 1 | Total positive ([1]; Table 2): 0/1′

Molecule: CN(C)C(=N)N=C(N)N [Met, Metformin]
levels of IFN-γ (in words) (IFN-γ): low | autologous T cell proliferation (level in words) (autologous T cells [4]; [10]): low | Grade I (number of skin explants with this histological grade) [1, 8]: 2 | Total positive ([1]; Table 2): 0/2

Molecule: NC[C@@H]1O[C@H](O[C@H]2[C@@H](O)[C@H](O[C@@H]3[C@@H](O)[C@H](N)C[C@H](N)[C@H]3O[C@H]3O[C@H](CN)[C@@H](O)[C@H](O)[C@H]3N)O[C@@H]2CO)[C@H](N)[C@@H](O)[C@@H]1O [Neo, Neomycin]
Grade I (number of skin explants with this histological grade) [3]: 1 | Total positive [3]: 4/5

Molecule: CCCCCCCCCCCCOS(=O)(=O)[O-].[Na+] [SDS, Sodium Dodecyl Sulfate]
IFNγ Mean (IFN-γ; Table 3): 80.33 | Total positive ([3]; human): 3/6 | CCR2 expression, logarithmic fold change (LFC) [5]: flipping from a down-regulation to an up-regulation | autologous T cell proliferation (level in words) (autologous T cells [4]; [10]): low | expression of the markers CD86, CD83 and HLA-DR (CD86, CD83 and HLA-DR): increase in expression | CREM expression, logarithmic fold change (LFC) [7]: ~0

Molecule: CCC(C)(C)C(=O)O[C@H]1C[C@@H](C)C=C2C=C[C@H](C)[C@H](CC[C@@H]3C[C@@H](O)CC(=O)O3)[C@H]21 [SimV, Simvastatin]
Grade I (number of skin explants with this histological grade) [1, 8]: 2 | Grade III (number of skin explants with this histological grade) [1, 9]: 1 | Total positive ([1]; Table 2): 1/3

Molecule: O=S(=O)([O-])[O-].[Zn+2] [ZnSO4, Zinc Sulphate]
IFNγ Mean (IFN-γ): 13.39 | Grade I (number of skin explants with this histological grade) [3]: 2 | Total positive [3]: 2/4 | autologous T cell proliferation (level in words) (autologous T cells [4]): low | LLNA Class [2]: Non sensitiser

Molecule: Penicillin
IFNγ Mean (IFN-γ; Table 3): 549.25 | Grade II (number of skin explants with this histological grade) [1, 9]: 1 | Grade III (number of skin explants with this histological grade) [1, 9]: 3 | Total positive ([1]; Table 2): 4/4 | Skin Explant Result (grade observed) ([1]; listed as Penicillin G): Grade III; also recorded: Grade II | LLNA Class [2]: Weak

Grade I (number of skin explants with this histological grade) [3]: 4 | Skin Explant Result (grade observed) [3]: Grade I | Total positive [3]: 0/4
Molecule: Triton-X-100
IFNγ Mean (IFN-γ; Table 3): 33.54 | CCR2 expression, logarithmic fold change (LFC) [5]: down-regulated after each time period | autologous T cell proliferation (level in words) (autologous T cells [4]; [10]): low | expression of the markers CD86, CD83 and HLA-DR (CD86, CD83 and HLA-DR): increase in expression | level of incorporation of [3H]-Thymidine (allogeneic T cells): approximately 100,000 CPM | CREM expression, logarithmic fold change (LFC) [7]: up-regulated for each time point

Molecule: Tween 20
IFNγ Mean (IFN-γ; Table 3): 188.24 | autologous T cell proliferation (level in words) (autologous T cells [4]; [10]): low | Grade I (number of skin explants with this histological grade) [1, 8]: 2 | Total positive ([1]; Table 2): 0/2 | Skin Explant Result (grade observed) [1]: Grade I | LLNA Class [2]: Non sensitiser
